Structures can show the parent of a compound that is named as a salt.
Legend:
[1] = system: bacterial strains that express KPC β-lactamases; experiment: Synergy MIC / standard BLI potentiation MIC assay, strains expressing KPC β-lactamases; type: cell-based; settings: at least one KPC strain and/or better spectrum; in the presence of a β-lactam
Procedure: (§1) The experimental protocol was performed according to Clinical and Laboratory Standards Institute (CLSI) guidelines with modifications as described below (CLSI guidelines can be derived from the CLSI document M07-A9 published in January 2012: “Methods for Dilution Antimicrobial Susceptibility Tests for Bacteria That Grow Aerobically; Approved Standard-Ninth Edition”).
(§2) To prepare for MIC testing, frozen glycerol stocks of clinical isolates (Klebsiella pneumoniae, Eschericia coli, Enterobacter spp, Citrobacter spp, or Pseudomonas aeruginosa) were used to streak for isolated colonies on rich, non-selective, tryptic soy agar containing 5% sheep's blood (TSAB). Frozen glycerol stocks of laboratory engineered, isogenic E. coli strains, which contain cloned β-lactamase expressing plasmids were used to streak for isolated colonies on rich, selective LB agar supplemented with 25 μg/mL tetracycline to maintain the plasmid. All strains were incubated at 37° C. for 18-24 hrs.
(§3) On the day of testing, primary cultures were started by scraping off 5-10 colonies from the TSAB plates containing clinical strains or the tetracycline supplemented LB plates containing engineered strains. The clinical strain material was suspended in ˜5 mL of cation adjusted Mueller Hinton Broth (CAMHB) in 14 mL culture tubes. The engineered strain material was suspended in CAMHB (supplemented with 25 μg/mL tetracycline) in 14 mL culture tubes. All strains were incubated at 37° C. with aeration (200 rpm) for ˜2 hrs until the optical density at 600 nm (OD600) was >0.1.
(§4) The two compound components of the assay were each diluted in CAMHB and added to the 96-well broth microdilution assay plates. 50 μL of the β-lactam was added to each well of the assay plate in 2-fold dilutions with final concentrations ranging from 128 to 0.13 μg/mL. 25 μL of the BLI compound was added to all wells in the broth microdilution plates at a final concentration of 4 μg/mL. Inoculum cultures were prepared by standardizing the primary cultures to OD600=0.1 and then adding 20 μL of the adjusted primary culture per 1 mL CAMHB for clinical strains or CAMHB (supplemented with tetracycline at 100 μg/mL) for engineered strains, so that the final inoculum density was ˜10^5 colony forming units per milliliter. Diluted inoculum cultures were used to inoculate 25 μl, per well in 96-well broth microdilution assay plates. The final volume of each well was 100 μL and contained a β-lactam at different concentrations, a BLI compound at 4 μg/mL concentration, the bacterial culture at an OD600 of approximately 0.001 and when necessary tetracycline at 25 μg/mL.
(§5) Plates were incubated for 18-20 hours at 37° C. with aeration (200 rpm). Following incubation, growth was confirmed visually placing plates over a viewing apparatus (stand with a mirror underneath) and then OD600 was measured using a SpectraMax 340PC384 plate reader (Molecular Devices, Sunnyvale, Calif.). Growth was defined as turbidity that could be detected with the naked eye or achieving minimum OD600 of 0.1. MIC values were defined as the lowest concentration producing no visible turbidity.
The synergy MIC (sMIC) assay determines the concentration of the BLI required to potentiate the activity of a fixed concentration of a β-lactam antibiotic against β-lactamase producing bacterial strains. The experimental protocol was performed according to Clinical and Laboratory Standards Institute (CLSI) guidelines with modifications as described below (CLSI guidelines can be derived from the CLSI document M07-A9 published in January 2012: “Methods for Dilution Antimicrobial Susceptibility Tests for Bacteria That Grow Aerobically; Approved Standard-Ninth Edition”). […]

[2] = system: bacterial strains that express the class D cephalosporinase OXA-15; experiment: Synergy MIC / standard BLI potentiation MIC assay, strains expressing OXA-15; type: cell-based, E. coli; settings: in the presence of a β-lactam; comparator Avibactam (CCC)
Procedure: as §1, §2, §3, §4, §5
The synergy MIC (sMIC) assay determines the concentration of the BLI required to potentiate the activity of a fixed concentration of a β-lactam antibiotic against β-lactamase producing bacterial strains. […]

KPC-2 β-lactamase = KPC-2 β-lactamase (Klebsiella pneumoniae, UniProt Q9F663); experiment: Inhibition kinetics of KPC-2 with nitrocefin as reporter substrate; type: biochemical, K. pneumoniae; settings: KPC-2, 100 μM nitrocefin, 1×PBS pH 7.4, 25° C.
Chain of KPC-2 β-lactamase (Q9F663 25-293 limits assumed): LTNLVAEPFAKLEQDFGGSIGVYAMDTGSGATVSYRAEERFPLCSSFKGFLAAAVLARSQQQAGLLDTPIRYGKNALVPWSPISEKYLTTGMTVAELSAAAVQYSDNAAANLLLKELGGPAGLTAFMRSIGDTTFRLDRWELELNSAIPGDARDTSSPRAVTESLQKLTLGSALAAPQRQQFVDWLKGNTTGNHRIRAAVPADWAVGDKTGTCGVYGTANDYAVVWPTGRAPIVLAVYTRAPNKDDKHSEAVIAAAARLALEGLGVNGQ
Procedure: Inhibition or inactivation of KPC-2 by test inhibitors was assessed using 100 μM nitrocefin (NCF) as a reporter substrate. Assays were performed in 1×PBS pH 7.4, 0.1 mg/ml BSA, in 96-well half area plates, 50 μl reaction volume. NCF was dissolved in DMSO and diluted in assay buffer. Test inhibitors were dissolved in water or DMSO and serially diluted in the assay with final concentrations between […] The enzyme activity in the presence of varying concentrations of test inhibitor was determined by monitoring the hydrolysis of NCF spectrophotometrically at 486 nm, for 5 minutes, 25° C., using a SpectraMax Plus384 microplate reader with SoftMax Pro software (Molecular Devices). Data analysis was performed using GraphPad Prism (GraphPad Software, Inc.).
Progress curves were fit to a first-order rate decay equation (Eq. 1) to determine kobserved (kobs).
kobs vs. inhibitor concentration [I] curves were then fit to Eq.2 to determine the inhibitor dissociation constant (K) and the first order rate constant of enzyme inactivation at infinite inhibitor concentration (kinact). […] Yt=V0*(1−e^(−kobs^*t))/kobs Eq. 1 Where Y is the absorbance at time t, Vo is the uninhibited enzyme velocity, kobs is the observed rate constant of the enzyme inactivation. kobs=kinact*[I]/([I]+K(1+S/Km)) Eq. 2 Where S is the NCF concentration, Km is the KPC-2 Km for NCF

Compound	activity and/or spectrum of activity against bacterial strains that express KPC β-lactamases, compared with Avibactam [1]	activity against bacterial strains that express OXA-15, compared with Avibactam [2]	inactivation efficiency (kinact/K) (KPC-2 β-lactamase)
N=C(N)NCCc1cc([C@@H]2CC[C@@H]3CN2C(=O)N3OS(=O)(=O)O)no1 [Compound 604, (2S,5R)-2-(5-(2-guanidinoethyl)isoxazol-3-yl)-7-oxo-1,6-diazabicyclo[3.2.1]octan-6-yl hydrogen sulfate]	more active than Avibactam	more active than Avibactam	–
N=C(N)NCc1cc([C@@H]2CC[C@@H]3CN2C(=O)N3OS(=O)(=O)O)no1 [Compound 603, (2S,5R)-2-(5-(guanidinomethyl)isoxazol-3-yl)-7-oxo-1,6-diazabicyclo[3.2.1]octan-6-yl hydrogen sulfate]	more active than Avibactam	more active than Avibactam	–
NCCc1cc([C@@H]2CC[C@@H]3CN2C(=O)N3OS(=O)(=O)O)no1 [Compound 602, (2S,5R)-2-(5-(2-aminoethyl)isoxazol-3-yl)-7-oxo-1,6-diazabicyclo[3.2.1]octan-6-yl hydrogen sulfate]	more active than Avibactam	–	1-99 mM^−s^−1
CN(Cc1cc([C@@H]2CC[C@@H]3CN2C(=O)N3OS(=O)(=O)O)no1)C(=N)N [Compound 614, (2S,5R)-2-(5-((1-methylguanidino)methyl)isoxazol-3-yl)-7-oxo-1,6-diazabicyclo[3.2.1]octan-6-yl hydrogen sulfate]	more active than Avibactam	more active than Avibactam	–
